This is an account of results in patent US9463216B2 (priority 2012, dated 2016).

The target in this experiment is PA (Bacillus anthracis, UniProt P13423). The experiment is classed as binding, B. anthracis.
Chain of PA (P13423 30-764 limits assumed): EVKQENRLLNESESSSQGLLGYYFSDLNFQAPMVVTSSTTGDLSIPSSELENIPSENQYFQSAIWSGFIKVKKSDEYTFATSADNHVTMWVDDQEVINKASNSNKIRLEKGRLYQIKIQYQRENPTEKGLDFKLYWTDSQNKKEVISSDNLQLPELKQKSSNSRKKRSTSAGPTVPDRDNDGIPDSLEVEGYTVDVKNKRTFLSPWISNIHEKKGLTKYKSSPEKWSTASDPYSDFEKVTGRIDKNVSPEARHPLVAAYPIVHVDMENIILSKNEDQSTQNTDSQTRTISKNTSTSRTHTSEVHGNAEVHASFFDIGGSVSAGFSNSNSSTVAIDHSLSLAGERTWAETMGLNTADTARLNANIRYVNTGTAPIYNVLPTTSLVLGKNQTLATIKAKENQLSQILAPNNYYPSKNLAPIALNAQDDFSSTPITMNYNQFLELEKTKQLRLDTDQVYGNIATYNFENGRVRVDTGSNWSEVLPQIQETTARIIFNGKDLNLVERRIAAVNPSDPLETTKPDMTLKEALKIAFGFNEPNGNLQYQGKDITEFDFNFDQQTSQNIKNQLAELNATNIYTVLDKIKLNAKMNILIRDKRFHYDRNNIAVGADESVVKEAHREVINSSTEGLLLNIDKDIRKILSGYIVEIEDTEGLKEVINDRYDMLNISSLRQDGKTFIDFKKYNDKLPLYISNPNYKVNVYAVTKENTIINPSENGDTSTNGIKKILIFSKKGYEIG

Turning to poly-γ-D-glutamic acid [Compound 3], the “form complexes with PA” value was “can form complexes with PA”.
